# Patent publication US11434205B2, “Substituted imidazole carboxylate derivatives and the use thereof” (priority 2018, dated 2022)
# Like-named read-outs stand apart in the source and are kept apart here.
# Columns and labels:
# rats [1] = assay: Loss of righting reflexes (LORR) assay in rats, ED50 by up and down method; type: in vivo, rat; conditions: tail vein, class symbols; for ED50: Rattus norvegicus
# Procedure, shortened: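 ED50 obtained by up-and-down dosing, with righting-reflex loss over 30 s counted as general anesthesia. Compounds injected into the tail vein (0.1 mL/s) of male Sprague-Dawley rats weighing 250-300 g.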
# rats [2] = system: rats
# Experimental: Adult male Sprague-Dawley rats (250-300 g) were selected for the experiment. […] The anesthesia effects of the compounds were assessed in rats using a LORR assay and a period >30 s was considered as an indicator of general anesthesia. Then the up and down method was used to determine 50% effective dose (ED50). The drugs were administered through the tail vein of rats in a volume of 0.6 mL and at a rate of 0.1 mL/s.
# rats [3] = assay: Pharmacological characteristics at equivalent doses (2×ED50) in rats; conditions: 2×ED50, tail vein; for Adverse reactions: Red urine (incidence): DMSO solution (DMSO alone 10/10); for Onset time: time of LORR
# Procedure, shortened: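 Anesthesia onset, recorded as time of LORR, was measured after a 2×ED50 tail-vein injection (0.6 mL, 0.1 mL/s). Animals were male Sprague-Dawley rats of 250-300 g, n=8.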
# [4] = system: secretion of corticosterone, H295R cell line; assay: cells; type: cell-based; conditions: for EC50: read-out: EC50 (Corticosterone)
# Experimental: (§1) The Effects of the Compounds on Adrenocortical Function In Vitro Test
# (§2) Then secretion of the cortisol and corticosterone in the supernatant, was measured using HPLC-MS/MS method to determine whether the compounds of the present invention had adrenotoxic potential.
# [5] = system: secretion of cortisol, H295R cell line; assay: cells; type: cell-based; conditions: for EC50: read-out: EC50 (Cortisol)
# Experimental: as §1, §2
# rats [6] = type: in vivo, rat; conditions: rats of the MAP/HR figures, 2×ED50, tail vein; same value in min
# Procedure, shortened: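 Hemodynamic stability judged from mean arterial pressure and heart rate, recorded at 15 s intervals over 30 min pre- and post-dose. Dosing was through a tail-vein indwelling catheter in rats carrying implanted aortic/ventricular catheters and ECG wires, operated ≥1 week earlier.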
# rats [7] = conditions: for Adverse reactions: Tremor (incidence): continuous infusion 2×MIR
# Experimental: Pharmacological Effects of the Compounds on Continuous Infusion in Rats
# Adult male Sprague-Dawley rats with body weight ranging from 250 to 300 gm were selected for continuous infusion test. […] Time to recovery of righting reflex from stopping infusion, and time to fully awake from stopping infusion were recorded.
# rats [8] = type: in vivo, rat; conditions: rats of the MAP/HR figures, 2×ED50, tail vein
# [9] = H295R cell line, 0.1-10000 nM, HPLC-MS/MS, Table E3
# [10] = continuous tail vein infusion at 2×MIR, LORR maintained 1 hour, Table E4
# [11] = emulsion, continuous infusion at 2×MIR
# [12] = continuous tail vein infusion at 2×MIR, LORR maintained 1 hour, Table C4
# [13] = H295R cell line, 0.1-10000 nM, HPLC-MS/MS, Table D3
# [14] = continuous tail vein infusion at 2×MIR, LORR maintained 1 hour, Table D4
compound,measurement,setting,value
COCC1(COC(=O)c2c(F)ncn2[C@H](C)c2ccccc2)CCC1 [Compound E2],ED50,rats [1],0.1 to 0.5 mg/kg
same,Approximate therapeutic index,rats [2],>25
same,Minimal lethal dose,rats [2],>5 mg/kg
same,Righting reflex duration,rats [3],2.20 ± 1.11 min
same,Adverse reactions: Red urine (incidence),rats [3],(8/8)
same,Onset time,rats [3],0.23 ± 0.07 min
same,Corticosterone as an indicator to determine the presence of inhibition,[4]; [9],0
same,EC50,"[4]; Homo sapiens, NCI-H295R",> 10 µM
same,Cortisol as an indicator to determine the presence of inhibition,[5]; [9],0
same,EC50,"[5]; Homo sapiens, NCI-H295R",> 10 µM
same,recovery time of the test animals' righting reflex,rats [6],2.15 min
same,Onset time,rats [7]; [10],3 to 4 min
same,Recovery time after stopping infusion,rats [7]; [10],11 to 13 min
same,Types and incidence of adverse reactions,rats [7]; [10],Tremor (2/6)
same,recovery time of the test animals' righting reflex,rats [8],129 s
C[C@H](c1ccccc1)n1cncc1C(=O)OCC1CCC1 [Compound A8],ED50,rats [1],0.1 to 0.5 mg/kg
same,Approximate therapeutic index,rats [2],>10
same,Minimal lethal dose,rats [2],>2 mg/kg
same,Righting reflex duration,rats [3],2.25 ± 2.64 min
same,Adverse reactions: Red urine (incidence),rats [3],Red urine (8/8)
same,Onset time,rats [3],0.34 ± 0.21 min
same,Corticosterone as an indicator to determine the presence of inhibition,"[4]; H295R, Table A3",0
same,EC50,"[4]; Homo sapiens, NCI-H295R",> 1 µM
same,Cortisol as an indicator to determine the presence of inhibition,"[5]; H295R, Table A3",0
same,EC50,"[5]; Homo sapiens, NCI-H295R",> 1 µM
same,recovery time of the test animals' righting reflex,rats [6],2.15 min
same,Recovery time after stopping infusion,rats [7]; after 1 hour infusion at 2×MIR,9 to 14 min
same,Adverse reactions: Tremor (incidence),rats [7],Tremor (1/6)
same,Onset time,rats [7]; [11],3 to 4 min
same,recovery time of the test animals' righting reflex,rats [8],129 s
CC(=O)C1(OC(=O)c2cncn2[C@H](C)c2ccccc2)COC1 [Compound C3],ED50,rats [1],0.5 to 1 mg/kg
same,Approximate therapeutic index,rats [2],>14
same,Minimal lethal dose,rats [2],>10 mg/kg
same,Adverse reactions: Restlessness (incidence),rats [3],"Restlessness (3/8), Red"
same,Righting reflex duration,rats [3],1.31 ± 0.95 min
same,Adverse reactions: Red urine (incidence),rats [3],urine (8/8)
same,Onset time,rats [3],0.36 ± 0.12 min
same,Corticosterone as an indicator to determine the presence of inhibition,"[4]; H295R, Table C3",0
same,EC50,"[4]; Homo sapiens, NCI-H295R",> 1 µM
same,Cortisol as an indicator to determine the presence of inhibition,"[5]; H295R, Table C3",0
same,EC50,"[5]; Homo sapiens, NCI-H295R",> 1 µM
same,recovery time of the test animals' righting reflex,rats [6],1.25 min
same,Onset time,rats [7]; [12],3 to 4 min
same,Recovery time after stopping infusion,rats [7]; [12],10 to 14 min
same,Types and incidence of adverse reactions,rats [7]; [12],"Restlessness (2/6), Tremor (3/6)"
same,recovery time of the test animals' righting reflex,rats [8],75 s
CCC#CC(C)OC(=O)c1cncn1[C@H](C)c1ccccc1 (stereo partly drawn) [Compound D36],ED50,rats [1],0.1 to 0.5 mg/kg
same,Approximate therapeutic index,rats [2],>15
same,Minimal lethal dose,rats [2],>4 mg/kg
same,Adverse reactions: Hindlimb rigidity (incidence),rats [3],"Hindlimb rigidity (2/8),"
same,Adverse reactions: Tongue stretching (incidence),rats [3],"Tongue stretching (4/8),"
same,Righting reflex duration,rats [3],2.63 ± 1.78 min
same,Adverse reactions: Red urine (incidence),rats [3],Red urine (8/8)
same,Onset time,rats [3],0.31 ± 0.14 min
same,Corticosterone as an indicator to determine the presence of inhibition,[4]; [13],0
same,EC50,"[4]; Homo sapiens, NCI-H295R",> 1 µM
same,Cortisol as an indicator to determine the presence of inhibition,[5]; [13],0
same,EC50,"[5]; Homo sapiens, NCI-H295R",> 1 µM
same,recovery time of the test animals' righting reflex,rats [6],2.38 min
same,Onset time,rats [7]; [14],3 to 4 min
same,Recovery time after stopping infusion,rats [7]; [14],12 to 17 min
same,recovery time of the test animals' righting reflex,rats [8],143 s
C[C@H](c1ccccc1)n1cncc1C(=O)OC1CCC1 [Compound A17],ED50,rats [1],0.5 to 1 mg/kg
same,Approximate therapeutic index,rats [2],>11
same,Minimal lethal dose,rats [2],>6 mg/kg
same,Adverse reactions: Tongue stretching (incidence),rats [3],"Tongue stretching (2/8),"
same,Righting reflex duration,rats [3],5.78 ± 2.28 min
same,Adverse reactions: Red urine (incidence),rats [3],Red urine (8/8)
same,Onset time,rats [3],0.13 ± 0.03 min
same,Corticosterone as an indicator to determine the presence of inhibition,"[4]; H295R, Table A3",0
same,EC50,"[4]; Homo sapiens, NCI-H295R",> 10 µM
same,Cortisol as an indicator to determine the presence of inhibition,"[5]; H295R, Table A3",0
same,EC50,"[5]; Homo sapiens, NCI-H295R",> 10 µM
same,recovery time of the test animals' righting reflex,rats [6],5.45 min
same,Recovery time after stopping infusion,rats [7]; after 1 hour infusion at 2×MIR,19 to 25 min
same,Adverse reactions: Tremor (incidence),rats [7],Tremor (2/6)
same,Onset time,rats [7]; [11],2 to 3 min
same,recovery time of the test animals' righting reflex,rats [8],327 s
C[C@H](c1ccccc1)n1cnc(F)c1C(=O)OC1(C)COC1 [Compound E38],ED50 (mg/kg),rats [1],"B (B means that the measured ED50 is in the range of 0.10-0.50 mg/kg (excluding 0.10 mg/kg, including 0.50 mg/kg).)"
same,Approximate therapeutic index,rats [2],>20
same,Minimal lethal dose,rats [2],>7 mg/kg
same,Righting reflex duration,rats [3],1.96 ± 1.39 min
same,Sedation duration (mg/kg),rats [3],4.96 ± 1.66
same,Adverse reactions: Red urine (incidence),rats [3],(8/8)
same,Onset time,rats [3],0.25 ± 0.13 min
same,Corticosterone as an indicator to determine the presence of inhibition,[4]; [9],0
same,EC50,[4]; [9],> 10 µM
same,Cortisol as an indicator to determine the presence of inhibition,[5]; [9],0
same,EC50,[5]; [9],> 10 µM
same,recovery time of the test animals' righting reflex,rats [6],2.03 min
same,Onset time,rats [7]; [10],2 to 3 min
same,Recovery time after stopping infusion,rats [7]; [10],8 to 13 min
same,Types and incidence of adverse reactions,rats [7]; [10],Tremor (3/6)
same,recovery time of the test animals' righting reflex,rats [8],122 s
C=C=CC1(OC(=O)c2cncn2[C@H](C)c2ccccc2)COC1 [Compound D21],ED50,rats [1],0.01 to 0.1 mg/kg
same,Approximate therapeutic index,rats [2],>16
same,Minimal lethal dose,rats [2],>1 mg/kg
same,Adverse reactions: Hindlimb rigidity (incidence),rats [3],"Hindlimb rigidity (2/8),"
same,Righting reflex duration,rats [3],1.93 ± 0.95 min
same,Adverse reactions: Red urine (incidence),rats [3],Red urine (8/8)
same,Onset time,rats [3],0.15 ± 0.05 min
same,Corticosterone as an indicator to determine the presence of inhibition,[4]; [13],0
same,EC50,"[4]; Homo sapiens, NCI-H295R",> 1 µM
same,Cortisol as an indicator to determine the presence of inhibition,[5]; [13],0
same,EC50,"[5]; Homo sapiens, NCI-H295R",> 1 µM
same,recovery time of the test animals' righting reflex,rats [6],6.0 min
same,Onset time,rats [7]; [14],2 to 3 min
same,Recovery time after stopping infusion,rats [7]; [14],8 to 9 min
same,Types and incidence of adverse reactions,rats [7]; [14],"Tremor (4/6), Myoclonus (1/6)"
same,recovery time of the test animals' righting reflex,rats [8],360 s
C=C=CC1(OC(=O)c2c(F)ncn2[C@H](C)c2ccccc2)COC1 [Compound E37],ED50 (mg/kg),rats [1],A (A indicates that the measured ED50 is in the range of 0.01-0.10 mg/kg (including 0.01 and 0.10 mg/kg).)
same,Approximate therapeutic index,rats [2],>30
same,Minimal lethal dose,rats [2],>0.6 mg/kg
same,Righting reflex duration,rats [3],1.75 ± 0.26 min
same,Sedation duration (mg/kg),rats [3],3.66 ± 1.12
same,Adverse reactions: Red urine (incidence),rats [3],(8/8)
same,Onset time,rats [3],0.25 ± 0.15 min
same,Corticosterone as an indicator to determine the presence of inhibition,[4]; [9],0
same,EC50,[4]; [9],> 10 µM
same,Cortisol as an indicator to determine the presence of inhibition,[5]; [9],0
same,EC50,[5]; [9],> 10 µM
same,recovery time of the test animals' righting reflex,rats [6],1.67 min
same,Onset time,rats [7]; [10],2 to 3 min
same,Recovery time after stopping infusion,rats [7]; [10],7 to 10 min
same,Types and incidence of adverse reactions,rats [7]; [10],Tremor (2/6)
same,recovery time of the test animals' righting reflex,rats [8],100 s
